# Laboratory results taken from patent publication US12280032B2, “Methods and compositions for increasing the potency of antifungal agents” (Pacific Northwest Research Institute, priority 2014, dated 2025).
# Tests used:
# [1] = system: S. cerevisiae Strain F45; assay: Zones of growth inhibition on YPD plates containing 10 mM Enamine compound with 50 μg fluconazole disk; assay type: cell-based, Saccharomyces cerevisiae
# Procedure: Zones of Growth Inhibition were Measured for the S. cerevisiae Strain F45 on YPD Plates Containing 10 mM of the Enamine Compound with a 50 μg Fluconazole Disk Applied.
# Zones of growth inhibition were also measured for strain F45 in which F45 strains were spread on YPD plates that contained 10 mM of an Enamine compound which was poured into the plate, with a 50 μg fluconazole disk. Enamine is an unsaturated compound derived by the condensation of an aldehyde or ketone with a secondary amine Some enmities have structures that are similar to PE, as such, they were tested to measure their efficacy in increasing sensitivity to an antifungal.
# [2] = system: S. cerevisiae (F45); assay: YPD plate assay with antifungal filter disk, with or without PE; assay type: cell-based, Saccharomyces cerevisiae; set-up: Degree of clearance: unit not given here
# [3] = system: S. cerevisiae biofilm formation; assay: Biofilm formation (colony morphology); assay type: cell-based, Saccharomyces cerevisiae; details: determined by colony morphology; previous experiments
# Procedure: In each panel, the left plate is YPD alone and the right plate is YPD plus 10 mM PE (a concentration that inhibits the fluffy colony morphology). Each plate also contains a paper disk containing the DMSO vehicle (FIG. 1, panel A), 25 μg fluconazole (FIG. 1, panel B), 50 μg fluconazole (FIG. 1, panel C), or 100 μg fluconazole (FIG. 1, panel D).
# However, previous experiments determined that biofilm formation was inhibited at PE concentrations of 10 mM or higher. Attention is drawn to FIG. 2, in which concentrations of PE that were too low to inhibit biofilm formation (determined by colony morphology) were also shown to increase the sensitivity of the yeast strain flo11D for the fluconazole which further support the hypothesis that the effect of PE on drug sensitivity is independent of its effect on biofilm formation. As such, there is a synergistic effect upon the combination of PE with fluconazole, in which the cells are more sensitive to fluconazole in the presence of PE at a higher concentration (10 mM PE). […] It is noted that even at lower concentrations of PE (<10 mM), in which the colonies are fluffy, indicating an intact cell wall or intact morphology, the PE at lower concentrations can still enhance killing by fluconazole. […] As such, even at a lower concentration, PE in combination with fluconazole has a synergistic effect on inhibiting the growth of the fungal strain.
# [4] = system: Candida albicans (resistant=20186.025; 8357); assay: M.I.C. determination; assay type: cell-based; details: drug alone
# [5] = system: Aspergillus fumigatus (ATCC 13073); assay: M.I.C. determination; assay type: cell-based; details: drug alone
# [6] = system: Candida tropicalis (ATCC 200956); assay: M.I.C. determination; assay type: cell-based; details: drug alone
# [7] = system: Candida krusei (ATCC 6258); assay: M.I.C. determination; assay type: cell-based; details: drug alone
# [8] = system: Candida glabrata (ATCC 36583); assay: M.I.C. determination; assay type: cell-based; details: drug alone
# [9] = system: Candida albicans (sensitive=ATCC 90028); assay: M.I.C. determination; assay type: cell-based; details: drug alone
# [10] = system: Candida parapsilosis (ATCC 22019); assay: M.I.C. determination; assay type: cell-based; details: drug alone
# [11] = system: Cryptococcus neoformans (ATCC 24067); assay: M.I.C. determination; assay type: cell-based; details: drug alone
# [12] = system: Candida albicans (resistant=20186.025; 8357); assay: Checkerboard assay (FICI) of PE with triazole; assay type: cell-based; details: named triazole in combination with PE
# [13] = system: Aspergillus fumigatus (ATCC 13073); assay: Checkerboard assay (FICI) of PE with triazole; assay type: cell-based; details: named triazole in combination with PE
# [14] = system: Candida tropicalis (ATCC 200956); assay: Checkerboard assay (FICI) of PE with triazole; assay type: cell-based; details: named triazole in combination with PE
# [15] = system: Candida krusei (ATCC 6258); assay: Checkerboard assay (FICI) of PE with triazole; assay type: cell-based; details: named triazole in combination with PE
# [16] = system: Candida glabrata (ATCC 36583); assay: Checkerboard assay (FICI) of PE with triazole; assay type: cell-based; details: named triazole in combination with PE
# [17] = system: Candida albicans (sensitive=ATCC 90028); assay: Checkerboard assay (FICI) of PE with triazole; assay type: cell-based; details: named triazole in combination with PE
# [18] = system: Candida parapsilosis (ATCC 22019); assay: Checkerboard assay (FICI) of PE with triazole; assay type: cell-based; details: named triazole in combination with PE
# [19] = system: Cryptococcus neoformans (ATCC 24067); assay: Checkerboard assay (FICI) of PE with triazole; assay type: cell-based; details: named triazole in combination with PE
# [20] = system: the fungus; assay: Effects of antifungals in the presence of PE (FIG. 4); assay type: cell-based; details: PE used in conjunction with the antifungal
# [21] = system: C. albicans fluconazole resistant strain R357; assay: YPD plate assay with antifungal filter disk, with or without PE; assay type: cell-based, Candida albicans; set-up: unit not given here; details: C. albicans strain 8357
# [22] = system: BY4741 lab strain; assay: YPD plate assay with nystatin disk, with or without PE; assay type: cell-based, Saccharomyces cerevisiae; details: FIG. 9 Panel B
# Procedure: In each panel, the top plate is YPD alone with a disc that contains DMSO, the bottom left plate is YPD alone with a disc that contains 50 μg Nystatin and the bottom right plate is YPD plus 10 mM PE with a disc that contains 50 μg Nystatin. The plates in FIG. 9, panel A are spread with the F45 strain. The plates in FIG. 9, panel B are spread with the BY4741 lab strain.
# In each panel, the top plate is YPD alone with a disc that contains DMSO, the bottom left plate is YPD alone with a disc that contains 50 μg Nystatin and the bottom right plate is YPD plus 10 mM PE with a disc that contains 50 μg Nystatin. The plates in panel are spread with the F45 strain (FIG. 9, panel A), The plates in FIG. 9, panel Bare spread with the BY4741 lab strain.
# [23] = 10 mM compound in YPD, 50 μg fluconazole disk, F45
compound,measurement,setting,value
NCCCCOCCc1ccccc1 [I],Fluconazole Zone Size,[1],no growth
same,Growth of fungal cells on the plate with fluconazole,[1]; [23],loss of growth
C[C@H](O)c1cccc(C#N)c1 [D],Fluconazole Zone Size,[1],17 mm
CC[C@H](C)C[C@H](C)CCCCCCCCC(=O)N[C@H]1C[C@@H](O)[C@@H](NCCN)NC(=O)[C@@H]2[C@@H](O)CCN2C(=O)[C@H]([C@H](O)CCN)NC(=O)[C@H]([C@H](O)[C@@H](O)c2ccc(O)cc2)NC(=O)[C@@H]2C[C@@H](O)CN2C(=O)[C@H]([C@@H](C)O)NC1=O [Caspofungin],Degree of clearance,"[2]; FIG. 8 Panel A, YPD + 10 mM PE 50 μg Caspofungin (so in the source), F45",0
same,Degree of clearance,"[2]; FIG. 8 Panel E, YPD + 10 mM PE + 200 μg Caspofungin, F45",0
"OCCc1ccccc1 [PE, phenyl ethanol]",Degree of clearance,"[2]; FIG. 6 Panel A, YPD + 10 mM PE, disk with chloroform vehicle only, F45",0
same,Effect of PE on caspofungin sensitivity,"[2]; YPD plus 10 mM PE, 200 ng-50 μg caspofungin disk, F45, listed as PP",no effect
same,PE concentration at which biofilm formation was inhibited,[3],≥ 10 mM
same,Fluconazole Zone Size,[1],27 mm
C[C@@H](c1ncncc1F)[C@](O)(Cn1cncn1)c1ccc(F)cc1F [Voriconazole],MIC,[4],>128 µg
same,MIC,[5],0.25 µg
same,MIC,[6],32 µg
same,MIC,[7],0.25 µg
same,MIC,[8],0.5 µg
same,MIC,[9],0.03125 µg
same,MIC,[10],0.03125 µg
same,MIC,[11],0.0156 µg
same,FICI,[12],0.3
same,FICI,[13],0.6
same,FICI,[14],0.6
same,FICI,[15],1.1
same,FICI,[16],1.2
same,FICI,[17],2.1
same,FICI,[18],1.6
same,FICI,[19],1.1
same,Sensitivity of the fungus to the antifungal in the presence of PE,[20],increased the sensitivity
OC1(Cc2ccccc2)CCCC1 [H],Fluconazole Zone Size,[1],no growth
same,Growth of fungal cells on the plate with fluconazole,[1]; [23],loss of growth
CO[C@H]1[C@@H](O)[C@H](O)[C@H](OC[C@@]23C[C@@H]4[C@H](C)CC[C@H]4[C@@]4(C=O)CC2C=C(C(C)C)[C@@]34C(=O)O)O[C@@H]1C [Sordarin],Degree of clearance,"[2]; FIG. 7 Panel A, YPD + 10 mM PE + 50 μg Sordarin, F45",4
same,Degree of clearance,"[2]; FIG. 7 Panel A, YPD alone, 50 μg Sordarin disk, F45",8
same,Degree of clearance,"[2]; FIG. 7 Panel B, YPD + 10 mM PE + 10 μg Sordarin, F45",3
same,Degree of clearance,"[2]; FIG. 7 Panel B, YPD alone, 10 μg Sordarin disk, F45",2
same,Degree of clearance,"[2]; FIG. 7 Panel C, YPD + 10 mM PE + 1 μg Sordarin, F45",2
same,Degree of clearance,"[2]; FIG. 7 Panel C, YPD alone, 1 μg Sordarin disk, F45",1
same,Degree of clearance,"[2]; FIG. 7 Panel D, YPD + 10 mM PE + 500 μg Sordarin, F45",1
same,Degree of clearance,"[2]; FIG. 7 Panel D, YPD alone, Sordarin disk (500 ng per legend), F45",0
same,Degree of clearance,"[21]; FIG. 13 Panel A, YPD + 1 μg sordarin",1
same,Degree of clearance,"[21]; FIG. 13 Panel A, YPD + 1 μg sordarin + 10 mM PE",2
same,Degree of clearance,"[21]; FIG. 13 Panel B, YPD + 10 μg sordarin",2
same,Degree of clearance,"[21]; FIG. 13 Panel B, YPD + 10 μg sordarin + 10 mM PE",3
same,Degree of clearance,"[21]; FIG. 13 Panel C, YPD + 50 μg sordarin",3
same,Degree of clearance,"[21]; FIG. 13 Panel C, YPD + 50 μg sordarin + 10 mM PE",4
same,Sensitivity of the fungus to the antifungal in the presence of PE,[20],increased the sensitivity
OCCNCCc1ccccc1 [E],Fluconazole Zone Size,[1],35 mm
same,Activity compared with PE,[1]; [23],activity greater than PE
same,Growth of fungal cells on the plate with fluconazole,[1]; [23],loss of growth
CCc1ccc(N)cc1 [F],Fluconazole Zone Size,[1],inhibition by compound but not fluconazole
CC(O)c1cccc(O)c1 (stereo not drawn) [A],Fluconazole Zone Size,[1],11 mm
C[C@@H]1[C@H](O)[C@@H](C)/C=C/C=C/CC/C=C/C=C/C=C/C=C/C(O[C@H]2O[C@H](C)[C@@H](O)[C@H](N)[C@@H]2O)CC2O[C@](O)(CC(O)C(O)CCC(O)CC(O)CC(O)CC(=O)O[C@H]1C)CC(O)C2C(=O)O (stereo partly drawn) [Nystatin],Degree of clearance,"[2]; FIG. 9 Panel A, Strain F45, YPD + 50 μg nystatin",2
same,Degree of clearance,"[2]; FIG. 9 Panel A, Strain F45, YPD + 10 mM PE + 50 μg nystatin",2
same,Degree of clearance,[22]; YPD + 50 μg nystatin,2
same,Degree of clearance,[22]; YPD + 10 mM PE + 50 μg nystatin,2
OCCc1cccc(Cl)c1 [J],Fluconazole Zone Size,[1],no growth
same,Growth of fungal cells on the plate with fluconazole,[1]; [23],loss of growth
OCc1ccccc1 [B],Fluconazole Zone Size,[1],11 mm
Nc1ccc(CCO)cc1 [Compound C],Fluconazole Zone Size,[1],13 mm
CC(C)Cc1ccc(CCCO)cc1 [G],Fluconazole Zone Size,[1],inhibition by compound but not fluconazole
Nc1[nH]c(=O)ncc1F [Flucytosine],Sensitivity of the fungus to the antifungal in the presence of PE,[20],increased the sensitivity
OC(Cn1cncn1)(Cn1cncn1)c1ccc(F)cc1F [Fluconazole],MIC,[5],>128 µg
same,MIC,[7],32 µg
same,MIC,[8],8 µg
same,MIC,[11],0.25 µg
same,Sensitivity of the fungus to the antifungal in the presence of PE,[20],increased the sensitivity
